From EP0855387A1, “2-ACYLAMINOBENZAMIDE DERIVATIVES AND PREVENTIVE AND REMEDY FOR DISEASES CAUSED BY THE SUPERMULTIPLICATION OF VASCULAR INTIMAL CELLS” (KISSEI PHARMACEUTICAL CO., LTD., priority 1995, dated 1997)
Read-outs that look alike come from different tables or passages of the source.

Assays:
[1] = tested on: Spontaneous hypertensive rat-derived vascular smooth muscle cells (VSMCs) in thoracic aorta; experiment: Inhibition test on vascular smooth muscle cells proliferation (3H-thymidine incorporation); format: cell-based; conditions: Rattus norvegicus, VSMC
Experimental: Thus, the compounds of the present invention have a very potent inhibitory effect on vascular smooth muscle cells proliferation.
Spontaneous hypertensive rat-derived vascular smooth muscle cells (VSMCs) in thoracic aorta were isolated by explant technique. The VSMCs were placed into 96 wells at 5000 cells/well and incubated in DMEM containing 10 % fetal calf serum at 37 °C in 95 % air and 5 % carbon dioxide for 3 days. After the incubation, the medium was replaced with DMEM containing each compound and ^3H-thymidine, and then the VSMCs were incubated. 24 hours later, the incorporation of ^3H-thymidine into DNA was determined and the radioactivity was defined as proliferation inhibitory activity of VSMCs. The activity of each compound was shown as a concentration which reduced the radioactivity of non-treated group by 50 % (IC50).

[2] = tested on: thrombosis-induced neointimal hyperplasia in mouse femoral artery; experiment: Inhibition test on neointimal hyperplasia (thrombosis-induced model); format: in vivo; conditions: oral, once a day for 3 weeks; dose reducing the neointimal area of the non-treated group by 50 %
Experimental: The effect of compounds in vivo was evaluated by using a model of thrombosis-induced neointimal hyperplasia in mouse femoral artery. Each compound was suspended in 0.5 % carboxymethylcellulose sodium solution and administered orally to mice once a day for 3 weeks. After final administration, the femoral artery was fixed and removed. Cross sections of vessels were made consecutively and the neointimal area induced and formed by thrombosis was measured. Inhibitory activity on neointimal hyperplasia of each compound was shown as a dose which reduced the area of the non-treated group by 50 % (ID50).

[3] = tested on: restenosis after PTCA surgery; conditions: patients after PTCA surgery; incidence without the drug about 30-40%; cited from earlier work
Acute toxicity test = format: in vivo; conditions: single oral administration, dose of 2000mg/kg; for death (dead mice): 2000 mg/kg
Experimental: The compounds represented by the general formula (I) of the present invention have an LD50 value extremely preferable to that of Tranilast and therefore are very safer compounds.
Male ICR nice were fasted for 4 hours. 2-(3,4-Dimethoxycinnamoylamino)benzamide was suspended in 0.5 % carboxymethylcellulose sodium and administered orally at doses of 300, 1000 and 2000mg/kg, respectively. Dead mice and abnormal behavior were not observed even in the group administered at a dose of 2000mg/kg.

[4] = 3H-thymidine incorporation into DNA, 24 hours incubation with compound, read-out: Concentration of 50% inhibitory activity (IC50)

Compound	Dose of 50% inhibitory activity (ID50) [2] [mg/kg]	IC50 [1, 4] [µM]	other results
COc1ccc(C=CC(=O)Nc2ccccc2C(=O)O)cc1OC [Tranilast, 2-(3,4-dimethoxycinnamoylamino)benzoic acid, reference compound]	100		IC50 ([1]; in vitro, read-out: concentration exhibiting a 50% inhibitory activity on vascular smooth muscle cells proliferation): 231 µM; restenosis observed when administering after PTCA surgery [3]: 10-15%
COc1ccc(/C=C/C(=O)Nc2ccccc2C(N)=O)cc1OC [Compound 4, (E)-2-(3,4-Dimethoxycinnamoylamino)benzamide]	1	27	abnormal behavior (Acute toxicity test; mice): not observed; death (dead mice) (Acute toxicity test; listed as 2-(3,4-Dimethoxycinnamoylamino)benzamide): not observed; death (dead mice) (Acute toxicity test; listed as 2-(3,4-dimethoxycinnamoylamino)benzamide): no death was observed
CCOc1ccc(/C=C/C(=O)Nc2ccccc2C(N)=O)cc1OC [Compound 17, (E)-2-(4-Ethoxy-3-methoxycinnamoylamino)benzamide]	1	5	
COc1cc(/C=C/C(=O)Nc2ccccc2C(N)=O)cc(OC)c1OC [Compound 26, (E)-2-(3,4,5-Trimethoxycinnamoylamino)benzamide]		7	
COc1cc(OC)c(OC)cc1/C=C/C(=O)Nc1ccccc1C(N)=O [Compound 25, (E)-2-(2,4,5-Trimethoxycinnamoylamino)benzamide]		6	
COc1ccc(/C=C/C(=O)Nc2ccccc2C(N)=O)c(OC)c1 [Compound 12, (E)-2-(2,4-Dimethoxycinnamoylamino)benzamide]		3	
COc1cc(/C=C/C(=O)Nc2c(O)cccc2C(N)=O)cc(OC)c1OC [Compound 64, (E)-3-Hydroxy-2-(3,4,5-trimethoxycinnamoylamino)benzamide]		96	
CN(C)c1ccc(/C=C/C(=O)Nc2ccccc2C(N)=O)cc1 [Compound 55, (E)-2-(4-Dimethylaminocinnamoylamino)benzamide]		65	
